What was measured:
[1] = system: platelet PAR-1/PAR-4 receptors (cleaved epitope); test: Whole blood flow cytometry with WEDE15 monoclonal antibody (cleaved epitope) in statin-treated patients with coronary artery disease; format: in vivo, human; details: n = 10
Description: (§1) The study was designed as a prospective, single blinded, placebo controlled trial of 6 major statins currently available in the US. The study was approved by local institutional review boards. Written informed consent was obtained from all patients, who were informed of the strict compliance rules, and compensated for outpatient visits, and blood draws.
(§2) Blood samples were obtained with a 19-gauge needle by direct venipuncture and drawn into two 7-ml vacutainer tubes at room temperature containing 3.8% trisodium citrate. The vacutainer tube was filled to capacity and gently inverted 3 to 5 times to ensure complete mixing of the anticoagulant. The first 4-5 ml of blood were used for lipid profile analysis, or discharged. All samples were labeled with coded number and analyzed by blinded technicians. Platelet studies were performed at baseline as well as at Week 4, and Week 6.
(§3) The blood-citrate mixture (50 μl) was diluted with 450 μl Tris buffered saline (TBS) (10 mmol/l Tris, 0.15 mol/l sodium chloride) and mixed by inverting an Eppendorf tube gently two times. The appropriate antibody was then added (5 μl) and incubated at 37° C. for 30 minutes, after incubation, 400 μl of 2% buffered paraformaldehyde was added for fixation. The samples were analyzed on the FACScan flow cytometer (Becton Dickinson, San Diego, Calif.) calibrated to measure fluorescent light scatter. All parameters were collected using four-decade logarithmic amplification. The data were collected in list mode files and then analyzed. The surface expression of platelet receptors was determined by flow cytometry using the following monoclonal antibodies: cleaved (WEDE15), and intact (SPAN12) platelet thrombin PAR-1/PAR-4 receptors (Beckman Coulter, Brea, Calif.), and they were expressed as log mean fluorescence intensity.
(§4) The significance of differences between treatments arms was calculated by c2 and Fisher's exact tests for discrete variables, and Wilcoxon rank-sum test for continuous variables. The significance of differences between individual flow cytometric histograms was calculated using the Smirnov-Kolgomorov test incorporated in the CELLQuest' (San Diego, Calif.) software. Statistical analyses were performed using SPSS/E11.5 (SPSS, Inc., Chicago, Ill.). To control for any baseline differences analysis of variance was used. All p values are 2 sided.

[2] = system: platelet PAR-1/PAR-4 receptors (intact epitope); test: Whole blood flow cytometry with SPAN12 monoclonal antibody (nonactive, intact epitope) in statin-treated patients with coronary artery disease; format: in vivo, human; details: n = 10
Description: as §1, §2, §3, §4

[3] = Baseline (pretreatment), patients with coronary artery disease, mean ± SD
[4] = Week 4 of statin therapy, dose at physician discretion (Table 2), *p < 0.05
[5] = Week 6 of statin therapy, dose at physician discretion (Table 2), *p < 0.05

| SMILES | WEDE15-MoAbs (a cleaved epitope of PAR-1/PAR-4 receptors) receptor expression [1, 3] | WEDE15-MoAbs (a cleaved epitope of PAR-1/PAR-4 receptors) receptor expression [1, 4] | WEDE15-MoAbs (a cleaved epitope of PAR-1/PAR-4 receptors) receptor expression [1, 5] | SPAN-12-MoAbs (nonactive, intact epitope of PAR-1/PAR-4 receptors) receptor expression [2, 3] | SPAN-12-MoAbs (nonactive, intact epitope of PAR-1/PAR-4 receptors) receptor expression [2, 4] | SPAN-12-MoAbs (nonactive, intact epitope of PAR-1/PAR-4 receptors) receptor expression [2, 5] |
| --- | --- | --- | --- | --- | --- | --- |
| CC(C)c1c(C(=O)Nc2ccccc2)c(-c2ccccc2)c(-c2ccc(F)cc2)n1CC[C@@H](O)C[C@@H](O)CC(=O)O [Atorvastatin, atorvastatin] | 27.5 ± 4.9 Log mean fluorescence intensity | 16.1 ± 5.8* Log mean fluorescence intensity | 18.0 ± 7.4* Log mean fluorescence intensity | 46.1 ± 8.3 Log mean fluorescence intensity | 39.5 ± 5.7 Log mean fluorescence intensity | 30.8 ± 4.0* Log mean fluorescence intensity |
| CC(C)n1c(/C=C/C(O)CC(O)CC(=O)O)c(-c2ccc(F)cc2)c2ccccc21 (stereo not drawn) [Fluvastatin, fluvastatin] | 27.1 ± 5.9 Log mean fluorescence intensity | 18.0 ± 5.8* Log mean fluorescence intensity | 20.7 ± 4.1* Log mean fluorescence intensity | 42.8 ± 8.2 Log mean fluorescence intensity | 37.1 ± 7.3 Log mean fluorescence intensity | 29.9 ± 6.4* Log mean fluorescence intensity |
| CC[C@H](C)C(=O)O[C@H]1C[C@@H](C)C=C2C=C[C@H](C)[C@H](CC[C@@H]3C[C@@H](O)CC(=O)O3)[C@H]21 [Lovastatin, lovastatin] | 26.8 ± 4.9 Log mean fluorescence intensity | 18.4 ± 5.0* Log mean fluorescence intensity | 23.0 ± 6.3 Log mean fluorescence intensity | 40.6 ± 6.9 Log mean fluorescence intensity | 40.0 ± 8.1 Log mean fluorescence intensity | 31.1 ± 5.5* Log mean fluorescence intensity |
| CC[C@H](C)C(=O)O[C@H]1C[C@H](O)C=C2C=C[C@H](C)[C@H](CC[C@@H](O)C[C@@H](O)CC(=O)O)[C@H]21 [Pravastatin, pravastatin] | 28.2 ± 4.4 Log mean fluorescence intensity | 16.9 ± 4.8* Log mean fluorescence intensity | 20.1 ± 6.6* Log mean fluorescence intensity | 50.3 ± 9.1 Log mean fluorescence intensity | 29.0 ± 6.7* Log mean fluorescence intensity | 32.6 ± 8.4* Log mean fluorescence intensity |
| CC(C)c1nc(N(C)S(C)(=O)=O)nc(-c2ccc(F)cc2)c1/C=C/[C@@H](O)C[C@@H](O)CC(=O)O [Rosuvastatin, rosuvastatin] | 30.1 ± 7.2 Log mean fluorescence intensity | 17.4 ± 5.5* Log mean fluorescence intensity | 22.6 ± 7.2* Log mean fluorescence intensity | 42.2 ± 9.4 Log mean fluorescence intensity | 33.6 ± 5.9 Log mean fluorescence intensity | 25.1 ± 7.0* Log mean fluorescence intensity |
| CCC(C)(C)C(=O)O[C@H]1C[C@@H](C)C=C2C=C[C@H](C)[C@H](CC[C@@H]3C[C@@H](O)CC(=O)O3)[C@H]21 [Simvastatin, simvastatin] | 29.0 ± 7.3 Log mean fluorescence intensity | 16.6 ± 5.5* Log mean fluorescence intensity | 23.4 ± 8.1 Log mean fluorescence intensity | 45.4 ± 7.0 Log mean fluorescence intensity | 26.5 ± 5.8* Log mean fluorescence intensity | 24.9 ± 6.2* Log mean fluorescence intensity |
